Results on two compounds are retold here after patent publication US12172999B2, “Polymorphs” (SYNGENTA PARTICIPATIONS AG, priority 2016, dated 2024).

Each structure is given as a SMILES string.

The data set can be described thus: Stability of polymorphs: competitive slurry of both forms, polymorphic form determined by high throughput pXRD. The format is physicochemical. On the procedure: Equal amounts of the polymorph of the invention and the Reference Form A polymorph were stirred in 33% methylcyclohexane/xylene for 4 days at a range of temperatures: 6° C., 35° C., 40° C. and 52° C. After the 4 days, the crystals were isolated and dried and their polymorphic form determined by high throughput pXRD. […] As such, formulations of the polymorph of the invention made and stored at up to 52° C. will be unlikely to show unwanted crystal growth.

As to `CCOC(=O)OC1=C(c2c(C)cc(Cl)cc2C)C(=O)N(C)C12CCN(OC)CC2` [Reference Form A], under “equal amounts of both polymorphs stirred in 33% methylcyclohexane/xylene for 4 days, all temperatures (6° C., 35° C., 40° C., 52° C.)”, the “characteristic pXRD reflections in the isolated crystals” value is reported as “absent”.

As to `CCOC(=O)OC1=C(c2c(C)cc(Cl)cc2C)C(=O)N(C)C12CCN(OC)CC2` [polymorph of the invention], the stable polymorphic form result (equal amounts of both polymorphs stirred in 33% methylcyclohexane/xylene for 4 days at 6° C., 35° C., 40° C. and 52° C., crystals isolated, dried, pXRD) is “the stable form over the temperature range studied”.
